Where “and” joins values, the source holds several entries; their conditions need not be identical. Identical values can stand only once.
Assay: PK of compound of Formula (Ia) after single subcutaneous dose of solution formulations in Wistar Han rats
Type: in vivo
Details: SC 50 mg/kg; for concentration at 1 h / concentration at 3 h / concentration at 8 h: male, Wistar Han, rat, plasma, sc
Description: Formulations containing the compound of Formula (Ia), or a pharmaceutically acceptable salt thereof, were prepared as solutions and optionally administered subcutaneously or intramuscularly to rats, rabbits, and/or dogs.
A solution of about 400 mg/mL of the compound of Formula (Ia) having 19.14 w/w % water, 40.66 w/w % PEG 300, 35.20 w/w % of a sodium salt of a compound of Formula (Ia), and 5.00% ethanol was prepared. The solution was administered subcutaneously to male Wistar Han rats at a dose level of about 50 mg/kg and dose volume of 0.125 mL/kg and the pharmacokinetic (PK) profile was determined.
A solution of about 500 mg/mL of the compound of Formula (Ia) having 16.64 w/w % water, 35.36 w/w % PEG 300, 43.00 w/w % of a sodium salt of a compound of Formula (Ia), and 5.00% ethanol was prepared. The solution was administered subcutaneously to male Wistar Han rats at a dose level of about 50 mg/kg and dose volume of 0.1 mL/kg and the pharmacokinetic (PK) profile was determined.
A solution of about 400 mg/mL of the compound of Formula (Ia) having 17.00 w/w % water, 36.40 w/w % PEG 300, 35.20 w/w % of a sodium salt of a compound of Formula (Ia), 5.00 w/w % ethanol, and 6.40 w/w % poloxamer 188 was prepared. The solution was administered subcutaneously to male beagle dogs at a dose level of about 12 mg/kg and male Wistar Han rats at a dose level of about 50 mg/kg. The pharmacokinetic profiles were determined, and the results for dogs are summarized in Table and Table, while the results for rats are summarized in Table and Table below.
A solution of about 500 mg/mL of the compound of Formula (Ia) having 14.06 w/w % water, 30.12 w/w % PEG 300, […] of a sodium salt of a compound of Formula (Ia), 5.00 w/w % ethanol, and 6.40 w/w % poloxamer 188 was prepared. The solution was administered subcutaneously to male beagle dogs at a dose level of about 12 mg/kg and male Wistar Han rats at a dose level of about 50 mg/kg. The pharmacokinetic profiles were determined, and the results for dogs are summarized in Table and Table, while the results for rats are summarized in Table and Table below.
A solution of about 300 mg/mL of the compound of Formula (Ia) having 23.33 w/w % water, 48.99 w/w % PEG 300, 26.47 w/w % of a sodium salt of a compound of Formula (Ia), and 1.21 w/w % poloxamer 188 was prepared. The solution was administered subcutaneously to male beagle dogs at a dose level of about 6 mg/kg and male Wistar Han rats at a dose level of about 50 mg/kg. The pharmacokinetic profiles were determined, and the results for dogs are summarized in Table and Table, while the results for rats are summarized in Table and Table below.
A solution of about 400 mg/mL of the compound of Formula (Ia) having 18.80 w/w % water, 40.25 w/w % PEG 300, 34.38 w/w % of a sodium salt of a compound of Formula (Ia), 5.00 w/w % ethanol, and 1.57 w/w % poloxamer 188 was prepared. The solution was administered subcutaneously to male beagle dogs at a dose level of about 12 mg/kg and male Wistar Han rats at a dose level of about 50 mg/kg. The pharmacokinetic profiles were determined, and the results for dogs are summarized in Table and Table, while the results for rats are summarized in Table and Table below.
A solution of about 500 mg/mL of the compound of Formula (Ia) having 16.29 w/w % water, 34.88 w/w % PEG 300, 41.92 w/w % of a sodium salt of a compound of Formula (Ia), 5.00 w/w % ethanol, and 1.91 w/w % poloxamer 188 was prepared. The solution was administered subcutaneously to male beagle dogs at a dose level of about 12 mg/kg and male Wistar Han rats at a dose level of about 50 mg/kg. The pharmacokinetic profiles were determined, and the results for dogs are summarized in Table and Table, while the results for rats are summarized in Table and Table below.
A solution of about 400 mg/mL of the compound of Formula (Ia) having 20.90 w/w % water, 44.72 w/w % PEG 300, and 34.38 w/w % of a sodium salt of a compound of Formula (Ia) was prepared. […]

Structure (SMILES): CC(C)(C#Cc1ccc(-c2ccc(Cl)c3c(NS(C)(=O)=O)nn(CC(F)(F)F)c23)c([C@H](Cc2cc(F)cc(F)c2)NC(=O)Cn2nc(C(F)(F)F)c3c2C(F)(F)[C@@H]2C[C@H]32)n1)S(C)(=O)=O [compound of Formula (Ia)]
- Plasma concentration (0 h, individual rats, solution R, 400 mg/mL): BLQ
- Plasma concentration (0 h, individual rats, solution S, 500 mg/mL): BLQ
- Plasma concentration (0 h, individual rats, solution T, 400 mg/mL): BLQ
- Plasma concentration (0 h, individual rats, solution U, 500 mg/mL): BLQ
- Plasma concentration (0 h, individual rats, solution V, 300 mg/mL): BLQ
- Plasma concentration (1.00 h, individual rats, solution R, 400 mg/mL, 50 mg/kg): 59.3 nM and 42.4 nM
- Plasma concentration (3.00 h, individual rats, solution R, 400 mg/mL, 50 mg/kg): 164 nM and 104 nM
- Plasma concentration (3.00 h, individual rats, solution S, 500 mg/mL, 50 mg/kg): 72.7 nM and 118 nM
- Plasma concentration (8.00 h, individual rats, solution R, 400 mg/mL, 50 mg/kg): 131 nM and 84.1 nM
- Plasma concentration (8.00 h, individual rats, solution S, 500 mg/mL, 50 mg/kg): 82.0 nM and 127 nM
- Plasma concentration (24.0 h, individual rats, solution R, 400 mg/mL, 50 mg/kg): 194 nM and 125 nM
- Plasma concentration (24.0 h, individual rats, solution S, 500 mg/mL, 50 mg/kg): 138 nM and 133 nM
- Plasma concentration (48.0 h, individual rats, solution R, 400 mg/mL, 50 mg/kg): 162 nM and 107 nM
- Plasma concentration (48.0 h, individual rats, solution S, 500 mg/mL, 50 mg/kg): 158 nM and 119 nM
- Plasma concentration (72.0 h, individual rats, solution R, 400 mg/mL, 50 mg/kg): 154 nM and 123 nM
- Plasma concentration (72.0 h, individual rats, solution S, 500 mg/mL, 50 mg/kg): 166 nM and 120 nM
- Plasma concentration (96.0 h, individual rats, solution R, 400 mg/mL, 50 mg/kg): 162 nM and 112 nM
- Plasma concentration (96.0 h, individual rats, solution S, 500 mg/mL, 50 mg/kg): 149 nM and 107 nM
- Plasma concentration (168 h, individual rats, solution R, 400 mg/mL, 50 mg/kg): 166 nM and 124 nM
- Plasma concentration (168 h, individual rats, solution S, 500 mg/mL, 50 mg/kg): 121 nM and 82.3 nM
- Plasma concentration (336 h, individual rats, solution R, 400 mg/mL, 50 mg/kg): 275 nM and 256 nM
- Plasma concentration (336 h, individual rats, solution S, 500 mg/mL, 50 mg/kg): 277 nM and 140 nM and 131 nM
- Plasma concentration (504 h, individual rats, solution R, 400 mg/mL, 50 mg/kg): 319 nM and 393 nM
- Plasma concentration (504 h, individual rats, solution S, 500 mg/mL, 50 mg/kg): 211 nM and 235 nM
- Plasma concentration (672 h, individual rats, solution R, 400 mg/mL, 50 mg/kg): 286 nM and 442 nM
- Plasma concentration (672 h, individual rats, solution S, 500 mg/mL, 50 mg/kg): 254 nM and 227 nM
- Plasma concentration (840 h, individual rats, solution R, 400 mg/mL, 50 mg/kg): 313 nM and 443 nM
- Plasma concentration (840 h, individual rats, solution S, 500 mg/mL, 50 mg/kg): 221 nM and 250 nM
- Plasma concentration (1008 h, individual rats, solution R, 400 mg/mL, 50 mg/kg): 318 nM and 442 nM
- Plasma concentration (1008 h, individual rats, solution S, 500 mg/mL, 50 mg/kg): 479 nM and 207 nM and 215 nM
- Plasma concentration (1334 h, individual rats, solution R, 400 mg/mL, 50 mg/kg): 266 nM and 421 nM
- Plasma concentration (1334 h, individual rats, solution S, 500 mg/mL, 50 mg/kg): 254 nM and 248 nM
- Plasma concentration (1680 h, individual rats, solution R, 400 mg/mL, 50 mg/kg): 233 nM and 328 nM
- Plasma concentration (1680 h, individual rats, solution S, 500 mg/mL, 50 mg/kg): 216 nM and 189 nM
- Plasma concentration (2016 h, individual rats, solution R, 400 mg/mL, 50 mg/kg): 181 nM and 227 nM
- Plasma concentration (2016 h, individual rats, solution S, 500 mg/mL, 50 mg/kg): 158 nM and 133 nM
- Plasma concentration (2352 h, individual rats, solution R, 400 mg/mL, 50 mg/kg): 182 nM
- Plasma concentration (2352 h, individual rats, solution S, 500 mg/mL, 50 mg/kg): 170 nM and 119 nM
- Plasma concentration (2688 h, individual rats, solution R, 400 mg/mL, 50 mg/kg): 146 nM and 147 nM
- Plasma concentration (2688 h, individual rats, solution S, 500 mg/mL, 50 mg/kg): 148 nM and 126 nM
- Plasma concentration (3024 h, individual rats, solution R, 400 mg/mL, 50 mg/kg): 118 nM and 111 nM
- Plasma concentration (3360 h, individual rats, solution R, 400 mg/mL, 50 mg/kg): 116 nM and 84.7 nM
- Plasma concentration (3696 h, individual rats, solution R, 400 mg/mL, 50 mg/kg): 117 nM and 109 nM and 58.4 nM
- Plasma concentration (4032 h, individual rats, solution R, 400 mg/mL, 50 mg/kg): 109 nM and 136 nM and 59.5 nM
- Plasma concentration (4704 h, individual rats, solution R, 400 mg/mL, 50 mg/kg): 84.4 nM and 92.7 nM and 29.9 nM
- Plasma concentration (5376 h, individual rats, solution R, 400 mg/mL, 50 mg/kg): 62.6 nM and 90.4 nM and 20.9 nM
- Plasma concentration (6048 h, individual rats, solution R, 400 mg/mL, 50 mg/kg): 27.4 nM and 48.6 nM and 14.6 nM
- Plasma concentration (6720 h, individual rats, solution R, 400 mg/mL, 50 mg/kg): 22.7 nM and 45.8 nM and 10.4 nM
- Plasma concentration (7392 h, individual rats, solution R, 400 mg/mL, 50 mg/kg): 13.5 nM and 28.6 nM and 7.43 nM
- Plasma concentration (8064 h, individual rats, solution R, 400 mg/mL, 50 mg/kg): 8.39 nM and 24.1 nM and 4.52 nM
- concentration at 1 h (50 mg/kg, 1.00 h, individual rats, solution R, 400 mg/mL): 67.6 nM
- concentration at 1 h (50 mg/kg, 1.00 h, individual rats, solution U, 500 mg/mL): 42.6 nM
- concentration at 1 h (50 mg/kg, 1.00 h, individual rats, solution V, 300 mg/mL): 51.4 nM
- concentration at 1 h (50 mg/kg, 1.00 h, mean, n = 3 rats, solution R, 400 mg/mL): 56.4 nM
- concentration at 1 h (50 mg/kg, 1.00 h, mean, n = 3 rats, solution S, 500 mg/mL): 49.2 nM
- concentration at 1 h (50 mg/kg, 1.00 h, mean, n = 3 rats, solution V, 300 mg/mL): 51.4 nM
- concentration at 1 h (50 mg/kg, 1.00 h, mean, n = 5 rats, solution T, 400 mg/mL): 56.4 nM
- concentration at 1 h (50 mg/kg, 1.00 h, mean, n = 5 rats, solution U, 500 mg/mL): 50.5 nM
- concentration at 3 h (50 mg/kg, 3.00 h, individual rats, solution R, 400 mg/mL): 128 nM
- concentration at 3 h (50 mg/kg, 3.00 h, individual rats, solution S, 500 mg/mL): 87.6 nM
- concentration at 3 h (50 mg/kg, 3.00 h, individual rats, solution T, 400 mg/mL): 128 nM
- concentration at 3 h (50 mg/kg, 3.00 h, individual rats, solution V, 300 mg/mL): 141 nM
- concentration at 3 h (50 mg/kg, 3.00 h, mean, n = 3 rats, solution R, 400 mg/mL): 132 nM
- concentration at 3 h (50 mg/kg, 3.00 h, mean, n = 3 rats, solution S, 500 mg/mL): 92.8 nM
- concentration at 3 h (50 mg/kg, 3.00 h, mean, n = 3 rats, solution V, 300 mg/mL): 116 nM
- concentration at 3 h (50 mg/kg, 3.00 h, mean, n = 5 rats, solution T, 400 mg/mL): 135 nM
- concentration at 3 h (50 mg/kg, 3.00 h, mean, n = 5 rats, solution U, 500 mg/mL): 110 nM
- concentration at 8 h (50 mg/kg, 8.00 h, individual rats, solution R, 400 mg/mL): 120 nM
- concentration at 8 h (50 mg/kg, 8.00 h, individual rats, solution S, 500 mg/mL): 92 nM

Reference: patent publication US11807625B2, “Capsid inhibitors for the prevention of HIV” (Gilead Sciences, Inc., priority 2019, dated 2023)
